The results in this text go back to paper PMC3755041 (Chemistry & biology, 2013).

Assay [1] addresses AcePrx-1 (peroxiredoxin-1) (Ancylostoma ceylanicum, UniProt J7HJM3). Nature of the assay: co-crystal structure. It counts as biochemical.
Assay [2] concerns the target T1, human peroxiredoxin-IV (hPrxIV) (Homo sapiens, UniProt Q13162).
T1 sequence (Q13162 38-271): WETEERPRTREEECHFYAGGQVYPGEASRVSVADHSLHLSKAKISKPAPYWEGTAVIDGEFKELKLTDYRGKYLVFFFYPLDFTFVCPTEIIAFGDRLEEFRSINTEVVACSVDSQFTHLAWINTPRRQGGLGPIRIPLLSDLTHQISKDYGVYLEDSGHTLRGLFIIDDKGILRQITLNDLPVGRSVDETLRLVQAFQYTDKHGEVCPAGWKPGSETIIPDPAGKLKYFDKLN
Nature of the assay: H2O2 consumption assay. It counts as biochemical.

The target in assay [3] is T2, human peroxiredoxin-II (hPrxII) (Homo sapiens, UniProt P32119).
T2 sequence (P32119 2-198): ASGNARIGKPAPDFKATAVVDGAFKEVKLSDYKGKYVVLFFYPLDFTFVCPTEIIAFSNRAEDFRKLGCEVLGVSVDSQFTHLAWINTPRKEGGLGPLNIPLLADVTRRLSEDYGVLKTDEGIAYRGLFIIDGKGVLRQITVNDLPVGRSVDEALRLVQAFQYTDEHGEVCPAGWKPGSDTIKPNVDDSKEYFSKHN
Nature of the assay: H2O2 consumption assay. The assay is classed as biochemical.

Assay [4] addresses T3, AcePrx-1 (peroxiredoxin-1) (Ancylostoma ceylanicum, UniProt J7HJM3).
T3 sequence (J7HJM3 1-196): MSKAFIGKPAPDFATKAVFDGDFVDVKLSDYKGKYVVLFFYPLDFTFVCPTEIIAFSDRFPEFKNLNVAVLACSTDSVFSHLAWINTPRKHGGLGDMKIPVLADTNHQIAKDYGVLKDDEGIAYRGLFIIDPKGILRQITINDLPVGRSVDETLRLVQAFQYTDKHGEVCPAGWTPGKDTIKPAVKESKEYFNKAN
Briefly: LC-ESI-MS of covalent adduct on purified protein. It counts as binding.

Assay [5] has as its target AcePrx-1 containing a C-terminal histidine tag (Ancylostoma ceylanicum). Briefly: SEC-MALS.
Assay [6] concerns the target Peroxiredoxin-1 from Ancylostoma ceylanicum, wild type, N-terminal histidine tag (Ancylostoma ceylanicum). Briefly: SEC-MALS. Background: SEC sorts molecules by how far they enter the pores of the column.
The target is the same in assay [7]. Briefly: non-reducing SDS-PAGE.

Usually IC50 stands for the point on the concentration scale where inhibition reaches its midpoint. A word on the stoichiometry N: it is the number of molecules, sites or subunits per partner or assembly.

For the molecule `[O-][n+]1c(CBr)c(CBr)[n+]([O-])c2ccccc21` [conoidin A, 2,3-bis(bromomethyl)quinoxaline-1,4-dioxide], the IC50 in assay [1] came out at 374 µM; in assay [2], 262 µM; in assay [3] it was 358 µM.
As to `Cc1c(CBr)[n+]([O-])c2ccccc2[n+]1[O-]` [conoidin B, 2-(bromomethyl)-3-methylquinoxaline-1,4-dioxide], the “LC-ESI-MS of covalent adduct on purified protein” value in assay [4] is “Conoidin B reacted to wild type AcePrx-1 to produce a 189-Da adduct in LC-ESI-MS”.
The molecule “AcePrx-1 containing a C-terminal histidine tag (enzyme)” yielded a stoichiometry N in assay [5] of 10.
Turning to “Peroxiredoxin-1 from Ancylostoma ceylanicum, wild type, N-terminal histidine tag (enzyme)”, the stoichiometry N in assay [6] came out at 10; in assay [7] it was 2.
